In test [1] the test system is cancer cells. The test is described as follows: Analysis of SSB (alkaline elution assay). In kind it is cell-based. The following applies: 10 μM, 15, 30 and 60 min. How it is done: Thus, we further identified whether the increased ROS level serves as a cause of DDR. […] To investigate the extent of DNA damage induced by complex 3, we detected the numbers of normal SSB using an alkaline elution assay.
Then the cells were washed three times with PBSCMF (140 mM NaCl, 3 mM KCl, 8 mM Na2HPO4 and 1 mM KH2PO4). The numbers of SSBs were determined by an alkaline elution assay as previously described. The numbers of SSB in untreated cancer cells were subtracted in all cases.

Test [2] deals with A549 and NCI-H1299 cancer cells. The test is described as follows: H2O2 measurement (Amplex Red). In kind it is cell-based, human. The following applies: A549 and NCI-H1299, 10 μM, 2 h. The protocol:
(§1) As excessive ROS generation is associated with cell-killing activity, we further examined whether complex 3 could also induce the formation of excessive ROS in A549 and NCI-H1299 cancer cells.
The production of H2O2 was determined with the Amplex® Red reagent (10-acetyl-3,7-dihydroxyphenoxazine; Molecular Probes). In the presence of horseradish peroxidase (HPR), the Amplex® Red reagent reacts in a 1:1 stoichiometry to produce the red-fluorescent oxidation product, resorufin. Consequently, resorufin generation allows the detection of the H2O2 released from biological compounds. […] Resorufin generation was measured over time using a fluorometer (Fluostar BMG Labtech) at 544 nm excitation and 590 nm emission.

Test [3] deals with caspase-3. The test is described as follows: Caspase-3 activation analysis. In kind it is cell-based, human. The following applies: A549 and NCI-H1299, 10 μM, 24 h. How it is done: For the quantification of activation of caspase-3 in cancer cells, 5 × 10^5 cancer cells were seeded in a 60 mm dish and allowed to adhere for 1 day. […] As a reference control, the cells were only incubated with fresh media at 37°C. Then, the cells were washed with PBS to eliminate the remaining drugs and harvested using trypsin-EDTA. All the groups of cells were collected into microtubes following incubation with […] media containing […] of FITC-DEVD-FMK (Caspase 3(active) FITC Staining Kit (ab65613)) for 1 h at 37°C under 5% CO2. Subsequently, centrifugation of the cells was performed to collect cell pellets and washed 2 times with washing buffer. Each group of cells was resuspended with […] of the washing buffer and transferred […] per well in a microtiter plate reader. The quantification of caspase-3 was evaluated as Relative Fluorescence Unit(RFU) using Fluorophotometer (Max Gemini EM, SoftMax® Pro 5, Molecular Devices Corp., Sunnyvale, CA) at an emission wavelength of 535 nm after excitation at 485 nm. The statistical significance was evaluated with one-way ANOVA test using Graph Pad Prism 4 software.

Test [4] concerns A549 cancer cells. The test is described as follows: Intracellular GSH measurement. In kind it is cell-based, human. The following applies: A549, 10 μM, 4 h. The protocol:
After 4 h, medium was removed and dishes were rinsed three times with cold PBS. The cells were harvested and cell numbers were counted. Then, intracellular GSH levels were measured using a GSH test kit (KeyGen KGT006). A549 and NCI-H1299 cancer cells without treatment were used as control groups.

Test [5] deals with A549 and NCI-H1299 cancer cells. The test is described as follows: ROS measurement (DCF fluorescence). In kind it is cell-based, human. The following applies: A549 and NCI-H1299, 10 μM. The protocol: as §1
The generation of ROS induced by complex 3 was determined with the cell permeant fluorogenic probe 2′,7′-dichlorodihydrofluorescein diacetate (H2DCFDA; Molecular Probes, Invitrogen, Darmstadt, Germany) as described. H2DCFDA diffuses into the cell, where it is enzymatically converted by intracellular esterases and oxidized into the high fluorescence compound DCF, which allows the determination of H2O2, peroxynitrite anions and peroxyl radicals. Approximately 4×10^3 A549 and NCI-H1299 cancer cells per well were plated on white bottom 96-well plates in extracellular fluid ([…] NaCl, 3 mM KCl, 1 mM CaCl2, 1 mM MgCl2, 10 mM HEPES and 25 mM glucose; pH 7.4). […] Then, cells were loaded with […] H2DCFDA for 30 min at 37°C and 5% CO2. Then, cells DCF generation was measured over time using a fluorometer (Fluostar BMG Labtech, Offenburg, Germany) at 492 nm excitation and 520 nm emission.

`CC(C)C[NH+]1[C@@H]2CCCC[C@H]2[NH+](CC(C)C)[Pt-2]12[O]C(=O)CC(=O)[O]2` (some centres unmarked) [Complex 3]: in test [1], the “numbers of SSBs” value is on record as “could effectively increase the numbers of SSBs”. Also, the “production of H2O2” value in test [2] was “significantly higher”. Moreover, in test [3], the caspase-3 activity entry was “high degree of caspase-3 activity compared to oxaliplatin”. Moreover, in test [4], the “intracellular GSH levels” value is “did significantly reduce”. Moreover, in test [5], the ROS production entry is “induced the production of significant amounts of ROS”.
